Measured values reported in ChEMBL document CHEMBL4622953, “Synthesis and biological evaluation of thioadatanserin and its dialkylated products as partial 5-HTR1A agonists and 5-HTR2A antagonists for potential use in depression and anxiety disorders” (Bioorg Med Chem Lett, 2020).
Structures can show the parent of a compound that is named as a salt.

What was measured:
Assay type in all cases: cell-based
[1] = molecular target: 5-hydroxytryptamine receptor 2A (Homo sapiens, UniProt P28223); assay: Antagonist activity at recombinant human 5-HT2A expressed in human U2OS cells by pathhunter beta-arrestin assay
5-hydroxytryptamine receptor 2A, sequence (P28223 whole entry): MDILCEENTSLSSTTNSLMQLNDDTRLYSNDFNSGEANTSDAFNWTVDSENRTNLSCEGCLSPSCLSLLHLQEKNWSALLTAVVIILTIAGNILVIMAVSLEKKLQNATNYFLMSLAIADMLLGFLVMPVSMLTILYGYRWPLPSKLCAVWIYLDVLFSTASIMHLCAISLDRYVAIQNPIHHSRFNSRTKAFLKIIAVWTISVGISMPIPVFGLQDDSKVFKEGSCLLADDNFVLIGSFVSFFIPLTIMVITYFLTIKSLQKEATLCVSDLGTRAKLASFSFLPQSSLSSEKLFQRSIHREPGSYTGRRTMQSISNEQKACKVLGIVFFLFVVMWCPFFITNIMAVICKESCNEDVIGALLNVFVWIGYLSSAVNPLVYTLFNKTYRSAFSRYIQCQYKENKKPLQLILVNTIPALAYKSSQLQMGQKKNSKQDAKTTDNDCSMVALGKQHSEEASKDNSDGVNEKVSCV

[2] = molecular target: T1, 5-hydroxytryptamine receptor 2C (Homo sapiens, UniProt P28335); assay: Antagonist activity at recombinant human 5-HT2C expressed in human U2OS cells by pathhunter beta-arrestin assay
T1 sequence (P28335 whole entry): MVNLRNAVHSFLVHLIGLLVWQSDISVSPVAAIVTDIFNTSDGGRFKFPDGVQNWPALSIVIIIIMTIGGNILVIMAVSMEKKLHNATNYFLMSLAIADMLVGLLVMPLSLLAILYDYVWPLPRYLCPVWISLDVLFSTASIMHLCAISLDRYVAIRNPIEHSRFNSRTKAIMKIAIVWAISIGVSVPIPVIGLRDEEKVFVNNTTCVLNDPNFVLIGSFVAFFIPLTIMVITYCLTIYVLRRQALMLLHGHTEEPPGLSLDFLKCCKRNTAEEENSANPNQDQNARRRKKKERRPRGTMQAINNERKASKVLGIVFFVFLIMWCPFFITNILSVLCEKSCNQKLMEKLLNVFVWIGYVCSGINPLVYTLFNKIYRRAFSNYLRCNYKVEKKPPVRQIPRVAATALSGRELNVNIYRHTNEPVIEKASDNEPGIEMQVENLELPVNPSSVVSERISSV

[3] = molecular target: T2, 5-hydroxytryptamine receptor 1A (Homo sapiens, UniProt P08908); assay: Partial agonist activity at recombinant human 5-HT1A expressed in CHO-K1 cells by pathhunter beta-arrestin assay
T2 sequence (P08908 whole entry): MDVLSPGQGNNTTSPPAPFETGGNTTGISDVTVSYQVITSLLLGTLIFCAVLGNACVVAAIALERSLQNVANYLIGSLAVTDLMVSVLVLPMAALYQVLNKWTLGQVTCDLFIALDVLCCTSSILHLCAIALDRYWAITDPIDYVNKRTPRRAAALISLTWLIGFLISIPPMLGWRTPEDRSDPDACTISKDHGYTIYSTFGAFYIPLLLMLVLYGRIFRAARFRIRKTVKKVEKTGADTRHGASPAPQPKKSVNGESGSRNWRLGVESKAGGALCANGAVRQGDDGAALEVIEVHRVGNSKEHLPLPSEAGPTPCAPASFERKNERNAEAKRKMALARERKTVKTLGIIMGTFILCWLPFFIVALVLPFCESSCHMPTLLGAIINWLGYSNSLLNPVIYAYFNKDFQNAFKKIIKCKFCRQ

SMILES | IC50 [1] | IC50 [2] | EC50 [3]
S=C(NCCN1CCN(c2ncccn2)CC1)C12CC3CC(CC(C3)C1)C2 | 62.3 nM | > 3330 nM | –
CS/C(=N/CC[N+]1(C)CCN(c2ncccn2)CC1)C12CC3CC(CC(C3)C1)C2 | > 10000 nM | – | > 10000 nM

Now from value to molecule, other results behind:

IC50 [1] | IC50 [2] | SMILES | EC50 [3]
> 10000 nM | – | c1ccc(CS/C(=N/CC[N+]2(Cc3ccccc3)CCN(c3ncccn3)CC2)C23CC4CC(CC(C4)C2)C3)cc1 | –
33.7 nM | 1260 nM | O=C(NCCN1CCN(c2ncccn2)CC1)C12CC3CC(CC(C3)C1)C2 [ADATANSERIN HYDROCHLORIDE] | 2.1 nM
– | 0.33 nM | Cc1cc2c(cc1Cl)N(C(=O)Nc1ccc(Oc3cccnc3C)nc1)CC2 [SB-242084] | –
